This passage reports IC50 results from patent publication US20070149553A1, “Mitotic kinesin inhibitors” (priority 2003, published 2007).

Bounds are passed on as bounds.

The assay addresses T1, human KSP motor domain (Homo sapiens, UniProt P52732).
T1 construct: were used to amplify the motor domain and the neck linker region; made in house; host or cells: E. coli BL21 (DE3)
T1 sequence (P52732 18-359 limits assumed): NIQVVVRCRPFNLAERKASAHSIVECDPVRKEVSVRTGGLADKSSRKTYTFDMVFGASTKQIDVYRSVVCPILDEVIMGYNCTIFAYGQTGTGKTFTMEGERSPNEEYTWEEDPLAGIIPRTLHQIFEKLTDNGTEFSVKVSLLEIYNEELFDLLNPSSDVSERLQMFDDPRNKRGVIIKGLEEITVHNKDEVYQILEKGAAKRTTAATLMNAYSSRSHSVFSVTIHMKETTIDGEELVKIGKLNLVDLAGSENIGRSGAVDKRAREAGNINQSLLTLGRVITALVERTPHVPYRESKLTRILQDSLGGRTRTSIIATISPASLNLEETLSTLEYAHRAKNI
As to the kind of experiment: Kinesin ATPase In Vitro Assay. The class given is biochemical. As to conditions: human poly-histidine tagged KSP motor domain (KSP(367H)), microtubules, 1 mM ATP, 23° C. The text has this:
I. Kinesin ATPase In Vitro Assay
Cloning and Expression of Human Poly-Histidine Tagged KSP Motor Domain (KSP(367H))
Plasmids for the expression of the human KSP motor domain construct were cloned by PCR using a pBluescript full length human KSP construct (Blangy et al., Cell, vol. 83, pp 1159-1169, 1995) as a template. The N-terminal primer 5′-[…] (SEQ. ID. NO.: 1) and the C-terminal primer 5′-[…] […] (SEQ. ID. NO.: 2) were used to amplify the motor domain and the neck linker region. The PCR products were digested with AseI and XhoI, ligated into the NdeI/XhoI digestion product of pRSETa (Invitrogen) and transformed into E. coli BL21 (DE3).
Cells were grown at 37° C. to an OD600 of 0.5. […]
The kinesin motor domain is incubated with microtubules, 1 mM ATP (1:1 MgCl2: Na-ATP), and compound at 23° C. in buffer containing 80 mM K-HEPES (pH 7.0), 1 mM EGTA, 1 mM DTT, 1 mM MgCl2, and 50 mM KCl. […] Free phosphate from the ATP hydrolysis reaction is measured via a quinaldine red/ammonium molybdate assay by adding 150 μl of quench C buffer containing a 2:1 ratio of quench A:quench B. Quench A contains 0.1 mg/ml quinaldine red and 0.14% polyvinyl alcohol; quench B contains 12.3 mM ammonium molybdate tetrahydrate in 1.15 M sulfuric acid. The reaction is incubated for 10 minutes at 23° C., and the absorbance of the phospho-molybdate complex is measured at 540 nm.

By IC50 is commonly meant the concentration needed to halve the response being measured. A high value points to a need for much substance. For `Cc1ccc(-n2c(-c3ccccc3Br)nc3sccc3c2=O)cc1` [1-4, 2-(2-bromophenyl)-3-(4-methylphenyl)thieno[2,3-d]pyrimidin-4(3H)-one], the IC50 was no more than 50 µM.
